Assay results from article PMC6658998, “Pharmacological characterization of the seven human NOX isoforms and their inhibitors” (Redox Biology, 2019).

Assays:
human NOX1 = target: T1, human NOX1 (Homo sapiens, UniProt Q9Y5S8); test: WST-1 O2•- detection in NOX1-expressing CHO cells; assay type: cell-based; conditions: NOX1 expressing cells, concentration-response
T1 construct: expressed in transfected cells; host or cells: CHO
T1 sequence (Q9Y5S8 1-564): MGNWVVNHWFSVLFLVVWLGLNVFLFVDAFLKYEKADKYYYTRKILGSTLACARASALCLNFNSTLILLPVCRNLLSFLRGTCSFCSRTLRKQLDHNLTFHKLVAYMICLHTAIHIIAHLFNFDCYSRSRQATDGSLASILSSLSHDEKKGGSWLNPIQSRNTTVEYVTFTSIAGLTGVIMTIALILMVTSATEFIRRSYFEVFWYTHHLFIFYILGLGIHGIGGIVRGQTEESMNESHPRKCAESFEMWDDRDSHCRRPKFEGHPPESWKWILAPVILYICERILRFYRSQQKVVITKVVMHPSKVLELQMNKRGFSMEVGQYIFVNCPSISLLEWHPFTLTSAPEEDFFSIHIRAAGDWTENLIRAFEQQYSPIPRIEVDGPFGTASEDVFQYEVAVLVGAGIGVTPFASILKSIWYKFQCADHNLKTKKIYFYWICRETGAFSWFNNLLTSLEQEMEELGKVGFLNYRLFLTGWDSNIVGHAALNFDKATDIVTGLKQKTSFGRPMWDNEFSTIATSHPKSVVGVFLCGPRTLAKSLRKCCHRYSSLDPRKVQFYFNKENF
T1 sequence (P13498 1-195 partner): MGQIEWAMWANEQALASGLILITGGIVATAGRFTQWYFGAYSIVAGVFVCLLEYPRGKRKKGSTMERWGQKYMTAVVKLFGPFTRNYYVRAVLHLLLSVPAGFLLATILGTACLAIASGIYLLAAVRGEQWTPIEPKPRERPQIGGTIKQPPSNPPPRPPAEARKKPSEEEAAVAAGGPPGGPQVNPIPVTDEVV

human NOX4 = target: T2, human NOX4 (Homo sapiens, UniProt Q9NPH5); test: WST-1 O2•- detection in tetracycline-induced NOX4 HEK293 T-REx cells; assay type: cell-based; conditions: NOX4 expressing cells, concentration-response
T2 sequence (Q9NPH5 1-578): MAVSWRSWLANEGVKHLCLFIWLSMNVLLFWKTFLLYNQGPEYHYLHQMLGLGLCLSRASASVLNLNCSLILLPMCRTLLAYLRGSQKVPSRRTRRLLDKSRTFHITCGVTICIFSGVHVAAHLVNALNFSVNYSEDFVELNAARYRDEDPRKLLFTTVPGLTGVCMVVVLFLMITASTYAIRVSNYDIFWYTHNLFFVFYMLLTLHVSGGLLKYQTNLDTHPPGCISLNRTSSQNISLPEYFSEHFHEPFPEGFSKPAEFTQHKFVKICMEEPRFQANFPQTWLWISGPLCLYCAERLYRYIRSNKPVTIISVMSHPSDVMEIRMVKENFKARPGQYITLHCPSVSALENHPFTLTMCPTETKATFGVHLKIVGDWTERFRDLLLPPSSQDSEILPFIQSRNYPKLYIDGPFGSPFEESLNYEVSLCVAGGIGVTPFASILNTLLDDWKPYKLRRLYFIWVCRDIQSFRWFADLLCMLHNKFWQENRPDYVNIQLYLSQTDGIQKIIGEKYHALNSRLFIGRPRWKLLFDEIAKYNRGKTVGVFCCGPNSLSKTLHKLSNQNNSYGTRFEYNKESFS
T2 sequence (P13498 1-195 partner): T1 sequence (P13498 1-195 partner)

[1] = Cell-free Amplex Red/HRP assay with 10 μM H2O2 (H2O2 scavenging / HRP inhibition); conditions: H2O2 alone
Description: This assay allows to detect H2O2 scavengers as well as HRP inhibitors. (iii) Another assay for determining antioxidant activity analyzes serial dilutions of compounds in the presence of free radical DPPH in methanol in transparent 96-well plates (200 μl/well). Absorbance was measured at 540 nm after 15 min incubation in the dark. All scavenging assays were performed with FlexStation 3 Multi-Mode Microplate Reader (Molecular Devices).

NOX1 = target: NOX1; parameters: method as in PMID 27273790; conditions: documented values, measured using Amplex Red/HRP assay; cited from earlier work
NOX5 = target: NOX5; parameters: method as in PMID 27273790; conditions: documented values, measured using Amplex Red/HRP assay; cited from earlier work

Structure (SMILES): CN(C)c1cccc(-c2c3c(=O)n(-c4ccccc4Cl)[nH]c3cc(=O)n2C)c1 [GKT137831]
- Activity on NOX1 in the WST-1 assay (human NOX1): inactive
- Activity on NOX4 in the WST-1 assay (human NOX4): inactive
- Effect on Amplex red/HRP signal in the presence of H2O2 alone [1]: inhibits the Amplex red/HRP signal
- Ki NOX1 (NOX1): nanomolar range
- Ki NOX5 (NOX5): nanomolar range
